{"source": "ChEMBL document CHEMBL1201862", "about": "“PubChem BioAssay data set” (2004)", "biological_target": "T1, Exodeoxyribonuclease V (Escherichia coli (strain K12), UniProt P04993+P07648+P08394)", "T1 sequence (P04993 whole entry)": "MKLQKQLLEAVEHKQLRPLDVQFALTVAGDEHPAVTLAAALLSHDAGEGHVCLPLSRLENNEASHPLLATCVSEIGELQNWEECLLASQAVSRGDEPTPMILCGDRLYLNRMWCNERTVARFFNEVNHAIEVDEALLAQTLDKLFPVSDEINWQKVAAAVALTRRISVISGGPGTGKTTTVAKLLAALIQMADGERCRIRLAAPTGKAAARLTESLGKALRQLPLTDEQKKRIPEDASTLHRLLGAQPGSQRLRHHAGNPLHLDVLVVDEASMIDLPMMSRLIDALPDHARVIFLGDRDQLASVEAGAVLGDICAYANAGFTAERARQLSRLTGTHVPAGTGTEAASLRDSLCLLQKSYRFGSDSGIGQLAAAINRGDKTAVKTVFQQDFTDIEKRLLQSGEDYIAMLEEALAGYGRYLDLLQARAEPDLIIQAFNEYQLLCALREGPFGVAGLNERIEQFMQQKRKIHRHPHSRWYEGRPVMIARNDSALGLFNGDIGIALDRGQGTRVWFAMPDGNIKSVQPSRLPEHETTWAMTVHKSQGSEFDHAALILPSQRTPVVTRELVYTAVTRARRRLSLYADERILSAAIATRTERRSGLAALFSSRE", "T1 sequence (P07648 whole entry)": "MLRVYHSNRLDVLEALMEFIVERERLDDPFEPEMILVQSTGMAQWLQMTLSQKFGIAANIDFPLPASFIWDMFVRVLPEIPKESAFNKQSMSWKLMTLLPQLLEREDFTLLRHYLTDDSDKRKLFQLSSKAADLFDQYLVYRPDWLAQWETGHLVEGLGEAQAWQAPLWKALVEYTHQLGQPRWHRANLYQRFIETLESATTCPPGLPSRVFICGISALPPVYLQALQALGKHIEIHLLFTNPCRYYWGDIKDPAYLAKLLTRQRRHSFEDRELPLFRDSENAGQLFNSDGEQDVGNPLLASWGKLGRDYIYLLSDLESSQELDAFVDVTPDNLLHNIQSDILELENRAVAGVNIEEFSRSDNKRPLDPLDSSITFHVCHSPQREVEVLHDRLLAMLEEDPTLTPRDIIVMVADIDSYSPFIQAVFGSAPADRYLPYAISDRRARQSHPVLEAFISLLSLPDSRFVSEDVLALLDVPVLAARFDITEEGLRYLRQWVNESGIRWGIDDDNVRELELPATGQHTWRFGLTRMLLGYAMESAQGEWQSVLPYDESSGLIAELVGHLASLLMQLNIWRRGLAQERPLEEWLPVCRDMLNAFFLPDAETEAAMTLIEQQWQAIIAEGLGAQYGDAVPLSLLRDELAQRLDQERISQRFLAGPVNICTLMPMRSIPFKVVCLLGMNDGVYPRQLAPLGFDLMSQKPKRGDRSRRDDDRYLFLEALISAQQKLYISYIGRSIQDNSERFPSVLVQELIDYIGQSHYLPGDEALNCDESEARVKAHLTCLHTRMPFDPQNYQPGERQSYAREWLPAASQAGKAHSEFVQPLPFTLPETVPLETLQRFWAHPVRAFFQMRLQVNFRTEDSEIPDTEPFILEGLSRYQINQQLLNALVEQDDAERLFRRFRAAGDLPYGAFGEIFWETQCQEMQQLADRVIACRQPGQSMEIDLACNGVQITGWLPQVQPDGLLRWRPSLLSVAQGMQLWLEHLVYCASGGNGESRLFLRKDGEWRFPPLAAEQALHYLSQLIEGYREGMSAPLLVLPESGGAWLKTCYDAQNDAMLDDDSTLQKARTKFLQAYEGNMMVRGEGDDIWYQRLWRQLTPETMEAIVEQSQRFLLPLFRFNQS", "T1 sequence (P08394 whole entry)": "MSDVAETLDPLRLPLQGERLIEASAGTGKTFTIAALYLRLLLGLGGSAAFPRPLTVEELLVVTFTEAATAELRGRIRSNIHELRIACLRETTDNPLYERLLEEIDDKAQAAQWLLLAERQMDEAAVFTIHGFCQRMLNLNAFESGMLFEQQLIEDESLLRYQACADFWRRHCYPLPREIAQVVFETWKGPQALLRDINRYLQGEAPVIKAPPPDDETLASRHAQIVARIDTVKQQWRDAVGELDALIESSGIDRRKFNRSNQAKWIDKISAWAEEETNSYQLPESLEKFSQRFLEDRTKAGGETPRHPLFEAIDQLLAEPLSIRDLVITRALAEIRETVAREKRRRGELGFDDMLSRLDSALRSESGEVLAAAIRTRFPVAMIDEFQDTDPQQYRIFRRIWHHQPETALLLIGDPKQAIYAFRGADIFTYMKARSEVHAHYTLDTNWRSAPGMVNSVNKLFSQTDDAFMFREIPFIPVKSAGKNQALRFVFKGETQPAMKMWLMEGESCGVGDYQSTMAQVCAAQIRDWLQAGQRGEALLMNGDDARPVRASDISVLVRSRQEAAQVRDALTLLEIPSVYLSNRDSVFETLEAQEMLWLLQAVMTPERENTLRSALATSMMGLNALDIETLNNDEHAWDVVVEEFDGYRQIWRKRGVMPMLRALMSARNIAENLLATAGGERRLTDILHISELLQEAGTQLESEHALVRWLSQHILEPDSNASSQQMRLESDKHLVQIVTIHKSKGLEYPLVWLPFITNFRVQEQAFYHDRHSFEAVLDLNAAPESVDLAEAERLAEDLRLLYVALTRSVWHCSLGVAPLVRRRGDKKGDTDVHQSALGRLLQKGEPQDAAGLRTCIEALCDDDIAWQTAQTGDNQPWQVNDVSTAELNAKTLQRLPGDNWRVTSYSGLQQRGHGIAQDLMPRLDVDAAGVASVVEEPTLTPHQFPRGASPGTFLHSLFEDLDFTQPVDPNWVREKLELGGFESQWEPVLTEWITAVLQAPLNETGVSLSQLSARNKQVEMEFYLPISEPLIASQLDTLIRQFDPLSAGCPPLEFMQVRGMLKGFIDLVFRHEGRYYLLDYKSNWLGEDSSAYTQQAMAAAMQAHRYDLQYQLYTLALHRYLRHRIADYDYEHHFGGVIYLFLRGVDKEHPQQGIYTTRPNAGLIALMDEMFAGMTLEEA", "test": "E. coli RecBCD inhibitors, dose response, counter-screen for AddAB inhibitor project, absorbance, V66 E. coli, mutant T4 phage (AID 492957)", "type": "functional, cell-based, Escherichia coli str. K-12 substr. MG1655", "note": "Activity calls are given as the source filed them. The rule behind the calls is not given here."}
{"smiles": "COc1cc(-c2nnc(SCc3cc(=O)oc4cc(O)c(O)cc34)o2)cc(OC)c1OC", "values": [{"measurement": "IC50", "value": "> 119 µM (inactive)"}]}
